For series [1] the following is noted: for mass density: 298.15 K, 101.33 kPa, Liquid, Vibrating tube method.
A short description of series [2]: Molar enthalpy of transition or fusion. To be noted: Crystal; DSC.

Each structure is given as a SMILES string. ± gives the expanded uncertainty stated by the source.

The mass density is the mass of a sample divided by its volume. `CCCC[n+]1ccn(CC)c1.O=S(=O)([N-]S(=O)(=O)C(F)(F)F)C(F)(F)F`: in series [1], the mass density amounted to 1401.8 ± 14 kg/m3. The Glass transition temperature in series [1] (DTA) was -92.2 ± 3 °C.

In the case of `CCn1cc[n+](CC)c1.O=S(=O)([N-]S(=O)(=O)C(F)(F)F)C(F)(F)F` [1,3-diethylimidazolium bis[(trifluoromethyl)sulfonyl]imide], the mass density in series [1] turned out to be 1476 ± 15 kg/m3. In addition, in series [1] (Crystal, DTA), the Normal melting temperature was -10.5 ± 0.4 °C. Moreover, in series [1] (DTA), the Glass transition temperature is -67.2 ± 3 °C. In series [2], the “Molar enthalpy of transition or fusion” value came to 20.4 ± 0.8 kJ/mol.

Turning to `CCCC[n+]1ccn(CC)c1.F[P-](F)(F)(F)(F)F` [1-butyl-3-ethylimidazolium hexafluorophosphate], the mass density in series [1] is 1327.6 ± 12 kg/m3. In addition, the Glass transition temperature in series [1] (DTA) was -80.2 ± 3 °C.

For the compound `CCCCCCn1cc[n+](CC)c1.O=S(=O)([N-]S(=O)(=O)C(F)(F)F)C(F)(F)F` [1-hexyl-3-ethylimidazolium bis(trifluoromethylsulfonyl)imide], the mass density in series [1] is 1345.4 ± 13 kg/m3. In series [1] (DTA), the Glass transition temperature was -88.3 ± 3 °C.

Values taken from the NIST ThermoML archive (doi:10.1021/je700693z).
